Data published in patent US12351574B2, “Selective ligands for modulation of GIRK channels” (Northeastern University, priority 2018, dated 2025).

Tests used:
[1] = tested on: fear memories (freezing behavior); assay: cued fear conditioning test; format: in vivo, rat; conditions: for effect on fear acquisition (in words): FIG. 62A
Description: Cued fear conditioning test: On day 1, animals were habituated to the sound attenuating fear conditioning chamber (Kinder Scientific, Poway, CA) for 10 min. Between each animal, the chamber was cleaned with 70% ethanol. On day 2, acquisition of fear was achieved by placing rats back into the chamber for a 120 s acclimation period and then five pairings (120 s inter-trial interval) of the conditioned stimulus (CS; 20 s, 80 dB) followed immediately by the unconditioned shock stimulus (US; 500 ms, 0.8 mA foot shock). On day 3, CS consolidation was assessed by placing the rats back into the chamber with a 120 s acclimation period followed by five presentations of the CS only (20 s, 80 dB) with 120 s inter-trial-intervals. On day 4, extinction was assessed by presenting a 120 s acclimation period followed by 20 trials of the CS (20 s, 80 dB) with 120 s inter-trial-intervals. The same experimenter (SDF) handled the rats during all sessions and was blinded to the treatment. All trials were digitally video-recorded. For this behavioral test and all others, blind scoring was aided by modification of video file names by AIM. Freezing behavior (no visible signs of movement) was scored by SDF during the sound presentation and converted to percentage of total time. The acquisition, expression, extinction and recall of fear memories were assessed in a […] learning paradigm (modified from Johnson, P. L., et al., Pharmacological depletion of serotonin in the basolateral amygdala complex reduces anxiety and disrupts fear conditioning, Pharmacol Biochem Behav, 2015. 138: p. 174-9). Rats were habituated to the sound attenuating fear conditioning chamber on day 1 (Kinder Scientific, Poway, CA) for 10 min. For all experiments, the chamber was cleaned between animals. On day 2 acquisition of fear occurred where the rats were placed back into the chamber and after a 120 s acclimation period received 5 pairings (120 s inter-trial interval) of the conditioned stimulus (CS; 20 s, 80 dB) followed immediately by the unconditioned shock stimulus (US; 500 ms, 0.8 mA foot shock). On day 3 conditioned stimulus (CS) consolidation was assessed by placing the rats back into the chamber with a 120 s acclimation period followed by 5 presentations of the CS only (20 s, 80 dB) separated by 120 s. On day 4 extinction was assessed which consisted of the 120 s acclimation period followed by 20 trials of the CS (20 s, 80 dB) separated by 120 s intervals. On day 5, all animals were assessed for the recall. Animals were placed in the chamber and were presented with 5 tones. The same experimenter handled the rats during all sessions and was blinded to the phenotype. All trials were digitally video-recorded. Freezing behavior (no visible signs of movement) was scored by a blind scorer during the sound presentation and converted to percentage of total time.

[2] = target: T1, GIRK1/4 (Homo sapiens, UniProt P48544+P48549); assay: thallium flux assay, cells expressing GIRK1/4; format: cell-based; set-up: expressed in transfected cells
T1 sequence (P48549 1-501): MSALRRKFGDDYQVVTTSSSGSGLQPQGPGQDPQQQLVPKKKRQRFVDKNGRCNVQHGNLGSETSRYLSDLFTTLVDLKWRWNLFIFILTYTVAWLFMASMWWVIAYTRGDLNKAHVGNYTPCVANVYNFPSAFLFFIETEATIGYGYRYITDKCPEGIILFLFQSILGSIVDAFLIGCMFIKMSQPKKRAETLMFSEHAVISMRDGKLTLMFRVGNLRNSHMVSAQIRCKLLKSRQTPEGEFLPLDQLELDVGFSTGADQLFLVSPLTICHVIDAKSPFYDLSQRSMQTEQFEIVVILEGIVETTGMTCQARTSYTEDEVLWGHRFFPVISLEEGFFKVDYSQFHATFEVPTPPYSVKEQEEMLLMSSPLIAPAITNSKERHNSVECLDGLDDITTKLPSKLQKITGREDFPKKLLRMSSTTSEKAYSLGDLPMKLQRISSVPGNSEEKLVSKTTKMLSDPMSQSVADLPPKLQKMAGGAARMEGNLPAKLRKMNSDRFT
T1 sequence (P48544 1-419): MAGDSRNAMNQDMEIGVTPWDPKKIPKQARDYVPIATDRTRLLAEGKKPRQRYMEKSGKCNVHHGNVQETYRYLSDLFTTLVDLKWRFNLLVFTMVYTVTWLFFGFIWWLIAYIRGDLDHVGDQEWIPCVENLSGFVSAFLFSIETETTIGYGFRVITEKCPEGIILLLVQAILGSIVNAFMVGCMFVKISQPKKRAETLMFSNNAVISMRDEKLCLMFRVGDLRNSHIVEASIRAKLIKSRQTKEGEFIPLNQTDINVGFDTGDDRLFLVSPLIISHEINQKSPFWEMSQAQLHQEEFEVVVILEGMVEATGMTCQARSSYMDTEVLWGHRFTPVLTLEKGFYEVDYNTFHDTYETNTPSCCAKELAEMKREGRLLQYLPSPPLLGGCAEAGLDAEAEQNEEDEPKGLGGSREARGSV
Source text: Previous studies have utilized the thallium flux Assay to test the effects of ML297 and related compounds in cells coexpressing GIRK1/2 and GIRK1/4. In order to fully investigate the selective activation of GAT compounds, the inventors also utilized this assay. […] To determine the differences between the thallium flux and TEVC assays, the inventors computationally tested whether the binding of selective compounds could affect the selectivity of the pore area. The Cα RMSF of the region between the M1 and M2 helices of the channel were calculated during the MD simulation with or without ML297 and the selective GAT compounds in the GIRK2/2^FD and GIRK4/4^FD systems (FIGS. 60A-60B). […] To further test this idea, the inventors compared the 10 μM GAT1508-induced thallium and potassium currents in oocytes expressing GIRK1/2 and GIRK1/4 by TEVC recording (FIG. 61B). […] In an effort to enhance the current, the TEVC recording was performed at a holding potential of −100 mV.

[3] = 10 or 30 mg/kg i.p., FIGS. 27, 28
[4] = 10 or 30 mg/kg i.p., after acquisition and 30 min prior to consolidation, FIGS. 27, 28
[5] = 30 mg/kg, vehicle tone 5 (GAT1521 study), tone 6 (ML297 study)

Row | activation of GIRK1/4 in thallium flux assay (in words) ([2]; concentration-response, FIG. 61A) | EC50 ([2]; thallium flux assay) [nM] | SMILES | effect on fear acquisition (in words) ([1]; 10 mg/kg) | effect on fear consolidation (in words) ([1]; 10 mg/kg, FIG. 62B) | effect on fear acquisition (in words) ([1]; 30 mg/kg, early pairings) | extinction of fear memories versus vehicle (in words) [1, 3] | effect on consolidation of fear memories (in words) [1, 4] | recall of the freezing behavior (in words) ([1]; FIG. 62E) | tone by which freezing was significantly reduced during extinction ([1]; GAT1508 group, control group tone 7) [tone] | fear extinction of the freezing behavior (in words) ([1]; follow-up experiments, FIGS. 62C-62D, 63) | tone by which freezing was significantly reduced during extinction [1, 5] [tone] | effect on consolidation of fear memories (in words) ([1]; 30 mg/kg, FIG. 29) | extinction of fear memories versus controls (in words) ([1]; 30 mg/kg, FIG. 29)
1 | also activated the cardiac heteromer |  | Cc1cc(NC(=O)Nc2ccc(Br)s2)n(-c2ccccc2)n1 [GAT1508, 1-(5-bromothiophen-2-yl)-3-(3-methyl-1-phenyl-1H-pyrazol-5-yl)urea] | no significant effects | no significant effects | significant reductions in fear acquisition | extinguished fear memories much faster | no effects | No significant changes | 4 | more efficient extinction of the freezing behavior |  |  | 
2 |  |  | Cc1cc(NC(=O)Nc2ccc(C)s2)n(-c2ccccc2)n1 [GAT1521, 1-(3-methyl-1-phenyl-1H-pyrazol-5-yl)-3-(5-methylthiophen-2-yl)urea] |  |  |  | significantly reduced overall freezing during extinction | affected consolidation of fear memories |  |  |  | 3 |  | 
3 |  | ~2890 | Cc1cc(NC(=O)Nc2ccc(F)c(F)c2)n(-c2ccccc2)n1 [ML297, reference compound] |  |  |  |  |  |  |  |  | 6 | no effect | no significant differences
